# pIC50, pKi: −log10 of the molar value. “And” between values parts separate entries of the source, which are not always exact repeats. Equal values may be shown once.
# Columns and labels:
# [1] = test system: multiple myeloma MM.1S cell line; assay: Cell viability (CCK-8), multiple myeloma MM.1S; type: cell-based; settings: Homo sapiens, MM1.S, 96 h, MM.1S cells, 4 days, CCK-8, 50% inhibition of cell growth
# Procedure: 3. Determination of cell viability of the compound
# The sample to be tested was dissolved with 100% dimethyl sulfoxide to prepare a 20 mM stock solution of the compound, which was diluted with 100% dimethyl sulfoxide to the highest compound concentration required for the experiment (2.5 mM).
# First, 145 uL of a complete cell culture medium was added to wells B1-G1 of a 96-well flat-bottomed tansparent cell culture plate, and 100 uL of the complete medium was added to wells B2-G12, respectively. Then, 5 uL of the 2.5 mM solution of the compound was added to wells B1-D1 and E1-G1 respectively, and then diluted gradiently by 3-folds to B12-D12 and E12-G12 in sequence. Finally, 50 uL of the solution of the cells to be tested was added to each well, with about 3000-5000 cells per well, and a total volume of 150 uL per well.
# In the experiment, in addition to the tested compound, two other control groups were set up: 1) a control group adding the cells and the complete medium, but without adding the compound; 2) a control group adding the complete medium only, without adding the cells and the compound. The 96-well plate was placed in a 37° C. cell culture incubator containing 5% carbon dioxide for 4 days, added with 15 uL of a CCK-8 reagent per well, and then incubated at 37° C. for 2-4 hours. The 96-well plate was read on a TECAN microplate reader, and the absorbance value at 450 nm wavelength was taken.
# The effect of different concentrations of the compound on cell viability was calculated by the following equation: [absorption value of the experimental group−absorption value of pure cell culture medium without the cells or the compound]/[absorption value of the control group with the tumor cells but no testing compound−absorption value of pure cell culture medium without the cell or the compound]×100%.
# The above data were precessed by software, and the IC50 value was the concentration of the compound corresponding to the 50% inhibition rate of cell growth.
# Based on the above test method of the compound on cell viability, a variety of […] cancer cell lines were tested, using multiple myeloma MM.1S, breast cancer MDA-MB-231 and leukemia MV4-11 cell lines as exemples. Using this test method, the IC50 values of partial compounds in the examples of the present invention measured in multiple myeloma MM.1S, breast cancer MDA-MB-231 cell lines and leukemia MV4-11 cell lines were shown in Table 2.
# BRD4 BD2 protein = BRD4 BD2 protein (Homo sapiens (Human), UniProt O60885); assay: Fluorescence polarization binding affinity (Ki) with BRD4 BD2 protein; set-up: BRD4 BD2 Ki: reference not given here; settings: fluorescence polarization; Ki calculated from IC50
# BRD4 BD1 protein = BRD4 BD1 protein (Homo sapiens (Human), UniProt O60885); assay: Fluorescence polarization binding affinity (Ki) with BRD4 BD1 protein; settings: fluorescence polarization; Ki calculated from IC50
pIC50 [1],pKi (BRD4 BD2 protein),pKi (BRD4 BD1 protein),BRD4 BD2 Ki (BRD4 BD2 protein),Compound
6.86,7.37,6.89,,"CCc1nnn2c1-c1ccc(-c3cnn(C)c3)cc1C(Nc1ccc(Cl)cc1)CC2 (stereo not drawn) [BE02, N-(4-chlorophenyl)-1-ethyl-9-(1-methyl-1H-pyrazol-4-yl)-6,7-dihydro-5H-benzo[c][1,2,3]triazolo[1,5-a]azepin-7-amine]"
7.60,6.86,6.69,,"COc1ccc2c(c1)C(Nc1ccc(C(F)(F)F)cc1)CCc1onc(C)c1-2 (stereo not drawn) [FA05, 8-methoxy-1-methyl-N-(4-(trifluoromethyl)phenyl)-5,6-dihydro-4H-benzo[6,7]cyclohepta[1,2-d]isoxazol-6-amine]"
6.09,7.38,7.03,,"COc1ccc2c(c1)C(Nc1ccc(C)cc1)CCc1onc(C)c1-2 (stereo not drawn) [BB188, 8-methoxy-1-methyl-N-(p-tolyl)-5,6-dihydro-4H-benzo[6,7]cyclohepta[1,2-d]isoxazol-6-amine]"
6.41,7.02,6.22,,"Cc1nnn2c1-c1ccccc1C(Nc1cccc3cnccc13)CC2 (stereo not drawn) [LB103, N-(isoquinolin-5-yl)-1-methyl-6,7-dihydro-5H-benzo[c][1,2,3]triazolo [1,5-a]azepin-7-amine]"
6.48,7.62,7.54,,"Cc1nnn2c1-c1ccc(-c3ccc(NC(=O)OC(C)(C)C)cc3)cc1C(Nc1ccc(Cl)cc1)CC2 (stereo not drawn) [RA194, tert-butyl (4-(7-((4-chlorophenyl)amino)-1-methyl-6,7-dihydro-5H-benzo[c][1,2,3]triazolo[1,5-a]azepin-9-yl)phenyl)carbamate]"
7.52,7.50,7.09,,"Cc1noc2c1-c1ccc(-c3cn[nH]c3)cc1C(Nc1ccc(Cl)cc1)CC2 (stereo not drawn) [LA108, N-(4-chlorophenyl)-1-methyl-8-(1H-pyrazol-4-yl)-5,6-dihydro-4H-benzo[6,7]cyclohepta[1,2-d]isoxazol-6-amine]"
4.85,7.89,6.64,,"Cc1nnn2c1-c1ccc(-c3cnn(C)c3)cc1C(Nc1cccc(CC(=O)O)c1)CC2 (stereo not drawn) [LB62, 2-(3-((1-methyl-9-(1-methyl-1H-pyrazol-4-yl)-6,7-dihydro-5H-benzo[c][1,2,3]triazolo[1,5-a]azepin-7-yl)amino)phenyl) acetic acid]"
6.22,7.63,6.57,,"Cc1nnn2c1-c1ccc(-c3cnn(C)c3)cc1C(Nc1ccnn1C)CC2 (stereo not drawn) [BE118, 1-methyl-9-(1-methyl-1H-pyrazol-4-yl)-N-(1-methyl-1H-pyrazol-5-yl)-6,7-dihydro-5H-benzo[c][1,2,3] triazolo[1,5-a]azepin-7-amine]"
7.41,,7.81,<Kd,"Cc1nnn2c1-c1ccc(-c3cnn(C)c3)cc1C(Nc1ccccc1CC#N)CC2 (stereo not drawn) [LC09, 2-(2-((1-methyl-9-(1-methyl-1H-pyrazol-4-yl)-6,7-dihydro-5H-benzo[c][1,2,3]triazolo[1,5-a]azepin-7-yl)amino)phenyl)acetonitrile]"
6.39,7.37,7.01,,"Cc1nnn2c1-c1ccc(-c3cnn(C)c3)cc1C(Nc1ccc(CC(=O)O)cc1)CC2 (stereo not drawn) [LB36, 2-(4-((1-methyl-9-(1-methyl-1H-pyrazol-4-yl)-6,7-dihydro-5H-benzo[c][1,2,3]triazolo[1,5-a]azepin-7-yl)amino)phenyl)acetic acid]"
6.93,7.36,6.63,,"Cc1nnn2c1-c1ccc(-c3cnn(C)c3)cc1C(Nc1ccc(N(C)C)cc1)CC2 (stereo not drawn) [LB17, N^1,N^1-dimethyl-N^4-(1-methyl-9-(1-methyl-1H-pyrazol-4-yl)-6,7-dihydro-5H-benzo[c][1,2,3]triazolo[1,5-a]azepin-7-yl)benzene-1,4-diamine]"
6.78,7.84,6.88,,CNC(=O)c1cccc(NC2CCn3nnc(C)c3-c3ccc(-c4cnn(C)c4)cc32)c1 (stereo not drawn) [LB181]
7.35,7.85,7.25,,"Cc1nnn2c1-c1ccc(-c3cnn(C)c3)cc1C(Nc1cccc3ncccc13)CC2 (stereo not drawn) [LB86, 1-methyl-9-(1-methyl-1H-pyrazol-4-yl)-N-(quinolin-5-yl)-6,7-dihydro-5H-benzo[c][1,2,3]triazolo[1,5-a]azepin-7-amine]"
7.64,7.67,7.36,,"Cc1nnn2c1-c1ccc(-c3cnn(C)c3)cc1C(Nc1ccccc1CCO)CC2 (stereo not drawn) [LA198, 2-(2-((1-methyl-9-(1-methyl-1H-pyrazol-4-yl)-6,7-dihydro-5H-benzo[c][1,2,3]triazolo[1,5-a]azepin-7-yl)amino)phenyl)ethan-1-ol]"
5.92,7.49,6.75,,"Cc1nnn2c1-c1ccc(-c3cnn(C)c3)cc1C(Nc1ccccc1C(=O)O)CC2 (stereo not drawn) [LB173, 2-((1-methyl-9-(1-methyl-1H-pyrazol-4-yl)-6,7-dihydro-5H-benzo[c][1,2,3]triazolo[1,5-a]azepin-7-yl)amino)benzoic acid]"
9.00,8.90,7.40,,"CC(=O)N1CC=C(c2ccc3c(c2)C(Nc2cccc(Cl)c2)CCn2nnc(C)c2-3)CC1 (stereo not drawn) [BH29, 1-(4-(7-((3-chlorophenyl)amino)-1-methyl-6,7-dihydro-5H-benzo[c][1,2,3]triazolo[1,5-a]azepin-9-yl)-3,6-dihydropyridin-1(2H)-yl)ethan-1-one]"
5.09,7.55,6.45,,"Cc1nnn2c1-c1ccc(-c3cnn(C)c3)cc1C(Nc1cccc(C(=O)O)c1)CC2 (stereo not drawn) [LB97, 3-((1-methyl-9-(1-methyl-1H-pyrazol-4-yl)-6,7-dihydro-5H-benzo[c][1,2,3]triazolo[1,5-a]azepin-7-yl)amino)benzoic acid]"
7.77,7.78,7.43,,"Cc1nnn2c1-c1ccc(-c3ccc(N)nc3)cc1C(Nc1ccc(Cl)cc1)CC2 (stereo not drawn) [RB03, 9-(6-aminopyridin-3-yl)-N-(4-chlorophenyl)-1-methyl-6,7-dihydro-5H-benzo[c][1,2,3]triazolo[1,5-a]azepin-7-amine]"
6.82,7.64,7.05,,CNC(=O)c1ccc(NC2CCn3nnc(C)c3-c3ccc(-c4cnn(C)c4)cc32)cc1 (stereo not drawn) [LB128]
6.80,7.85,7.11,,"COC(=O)Cc1cccc(NC2CCn3nnc(C)c3-c3ccc(-c4cnn(C)c4)cc32)c1 (stereo not drawn) [LB63, methyl 2-(3-((1-methyl-9-(1-methyl-1H-pyrazol-4-yl)-6,7-dihydro-5H-benzo[c][1,2,3]triazolo[1,5-a]azepin-7-yl)amino)phenyl)acetate]"
8.33,7.82,7.46,,"Cc1nnn2c1-c1ccc(-c3cnn(C)c3)cc1C(Nc1ccc(C#N)cc1)CC2 (stereo not drawn) [LC18, 4-((1-methyl-9-(1-methyl-1H-pyrazol-4-yl)-6,7-dihydro-5H-benzo[c][1,2,3]triazolo[1,5-a]azepin-7-yl)amino)benzonitrile]"

Compound,pIC50 [1],pKi (BRD4 BD2 protein),pKi (BRD4 BD1 protein),BRD4 BD2 Ki (BRD4 BD2 protein)
"Cc1nnn2c1-c1ccc(C3=CCN(C(C)C)CC3)cc1C(Nc1cccc(Cl)c1)CC2 (stereo not drawn) [BH32, N-(3-chlorophenyl)-9-(1-isopropyl-1,2,3,6-tetrahydropyridin-4-yl)-1-methyl-6,7-dihydro-5H-benzo[c][1,2,3]triazolo[1,5-a]azepin-7-amine 2,2,2-trifluoroacetate]",6.92,8.01,6.28,
"Cc1nnn2c1-c1ccc(-c3cnn(C)c3)cc1C(Nc1ccc(F)cc1F)CC2 (stereo not drawn) [LC01, N-(2,4-difluorophenyl)-1-methyl-9-(1-methyl-1H-pyrazol-4-yl)-6,7-dihydro-5H-benzo[c][1,2,3]triazolo[1,5-a]azepin-7-amine]",7.31,7.55 and 8.04,7.25,
"Cc1nnn2c1-c1ccc(C3=CCNCC3)cc1C(Nc1cccc(O)c1)CC2 (stereo not drawn) [LC97, 3-((1-methyl-9-(1,2,3,6-tetrahydropyridin-4-yl)-6,7-dihydro-5H-benzo[c][1,2,3]triazolo[1,5-a]azepin-7-yl)amino)phenol 2,2,2-trifluoroacetate]",6.23,7.39,6.10,
"CCN1CC=C(c2ccc3c(c2)C(Nc2cccc(OC)c2)CCn2nnc(C)c2-3)CC1 (stereo not drawn) [BH33, 9-(1-ethyl-1,2,3,6-tetrahydropyridin-4-yl)-N-(3-methoxyphenyl)-1-methyl-6,7-dihydro-5H-benzo[c][1,2,3]triazolo[1,5-a]azepin-7-amine 2,2,2-trifluoroacetate]",6.73,7.41 and 7.55,5.75 and 6.16,

# From patent US12286435B2, “Compound having benzo seven-membered ring structure, preparation method therefor, and use thereof” (BIONNA (BEIJING) MEDICAL TECHNOLOGY CO., LTD., priority 2019, dated 2025)
